PubChem BioAssay AID330 (DTP/NCI, 2004)
Toxic doses and inconclusive results are not listed.

System: P388 leukemia ip, CD2F1 mice, survival T/C
Assay: NCI In Vivo Anticancer Drug Screen. Data for tumor model P388 Leukemia (intraperitoneal) in CD2F1 (CDF1) mice
Conditions: endpoint: median survival time, higher = longer survival
Procedure, shortened: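 Mice carrying the transplanted tumor received test compound or vehicle. Survival was recorded in each group, and the value is the treated-group measurement divided by that of the vehicle-treated control group.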

[1] = dose: 100.0 mg/kg/injection, schedule: Q01DX001 (ip), vehicle: saline with Tween-80
[2] = dose: 200.0 mg/kg/injection, schedule: Q01DX001 (ip), vehicle: saline with Tween-80
[3] = dose: 50.0 mg/kg/injection, schedule: Q01DX009 (ip), vehicle: saline
[4] = dose: 100.0 mg/kg/injection, schedule: Q01DX009 (ip), vehicle: saline
[5] = dose: 200.0 mg/kg/injection, schedule: Q01DX009 (ip), vehicle: saline
[6] = dose: 12.5 mg/kg/injection, schedule: Q01DX009 (ip), vehicle: saline with Tween-80
[7] = dose: 25.0 mg/kg/injection, schedule: Q01DX009 (ip), vehicle: saline with Tween-80

In the case of `C=CC1CCC[S+]1CC(=O)C(Cl)(Cl)Cl` (configuration not stated), the T/C [1] is reported as 102 % of control and the T/C [2] is reported as 109 % of control.
In the case of `CCS(=O)(=O)C(C(O)C(O)C(O)C(C)O)S(=O)(=O)CC` (configuration not stated), the T/C [3] is reported as 100 % of control, the T/C [4] is reported as 100 % of control and the T/C [5] is reported as 96 % of control.
In the case of `CCCCN(CCCC)CC(O)c1cc2ccc(C(F)(F)F)cc2c2cc(C(F)(F)F)ccc12` (configuration not stated), the T/C (dose: 6.25 mg/kg/injection, schedule: Q01DX009 (ip), vehicle: saline with Tween-80) is reported as 93 % of control, the T/C [6] is reported as 94 % of control and the T/C [7] is reported as 88 % of control. For the same compound, the T/C (dose: 100.0 mg/kg/injection, schedule: Q01DX009 (ip), vehicle: saline with Tween-80) was 100 % of control and the T/C (dose: 200.0 mg/kg/injection, schedule: Q01DX009 (ip), vehicle: saline with Tween-80) was 99 % of control.
`CCn1c(=O)c2[nH]c(Cl)nc2n(CC)c1=O` was tested, and the T/C (dose: 25.0 mg/kg/injection, schedule: Q04DX003 (ip), vehicle: water) was 91 % of control, the T/C (dose: 50.0 mg/kg/injection, schedule: Q04DX003 (ip), vehicle: water) was 103 % of control and the T/C (dose: 100.0 mg/kg/injection, schedule: Q04DX003 (ip), vehicle: water) was 112 % of control.
`CCn1c2ccc(NC(=O)OC(C)C)cc2c2c3[nH]c(=O)c4cccn4c3ccc21` was tested, and the T/C [1] was 87 % of control, the T/C [2] was 87 % of control and the T/C (dose: 400.0 mg/kg/injection, schedule: Q01DX001 (ip), vehicle: saline with Tween-80) was 92 % of control.
For `N#CC1Sc2ccccc2N1C(=O)Oc1ccccc1` (configuration not stated), the T/C (dose: 60.0 mg/kg/injection, schedule: Q01DX005 (ip), vehicle: saline with Tween-80) was 102 % of control, the T/C (dose: 120.0 mg/kg/injection, schedule: Q01DX005 (ip), vehicle: saline with Tween-80) was 106 % of control and the T/C (dose: 240.0 mg/kg/injection, schedule: Q01DX005 (ip), vehicle: saline with Tween-80) was 106 % of control.
With `CC1=CC2ON=C(c3c(C)cc(C)cc3C)N2N(C(=O)c2ccccc2)C=C1` (configuration not stated) the T/C [3] was 102 % of control, the T/C [4] was 93 % of control and the T/C [5] was 93 % of control.
`CCCCCCCCCCCCCCCC(CCCC)CCCCCC` (configuration not stated) was tested, and the T/C (dose: 50.0 mg/kg/injection, schedule: Q01DX001 (ip), vehicle: saline sonified) was 100 % of control, the T/C (dose: 100.0 mg/kg/injection, schedule: Q01DX001 (ip), vehicle: saline sonified) was 100 % of control and the T/C (dose: 200.0 mg/kg/injection, schedule: Q01DX001 (ip), vehicle: saline sonified) was 100 % of control.
With `COC(C(=O)C(O)C(C)O)C1Cc2cc3cc(OC4CC(OC5CC(O)C(O)C(C)O5)C(O)C(C)O4)c(C)c(O)c3c(O)c2C(=O)C1OC1CC(OC2CC(O)C(OC3CC(C)(O)C(O)C(C)O3)C(C)O2)C(O)C(C)O1` (configuration not stated) the T/C (dose: 0.06 mg/kg/injection, schedule: Q01DX009 (ip), vehicle: saline) was 122 % of control, the T/C (dose: 0.13 mg/kg/injection, schedule: Q01DX001 (ip), vehicle: saline) was 104 % of control and the T/C (dose: 0.13 mg/kg/injection, schedule: Q01DX009 (ip), vehicle: saline) was 106 % of control. The T/C (dose: 0.25 mg/kg/injection, schedule: Q01DX001 (ip), vehicle: saline) was 103 % of control, the T/C (dose: 0.25 mg/kg/injection, schedule: Q01DX009 (ip), vehicle: saline) was 109 % of control and the T/C (dose: 0.5 mg/kg/injection, schedule: Q01DX001 (ip), vehicle: saline) was 109 % of control. The T/C (dose: 0.5 mg/kg/injection, schedule: Q04DX003 (ip), vehicle: saline) was 116 % of control and the T/C (dose: 2.0 mg/kg/injection, schedule: Q01DX009 (ip), vehicle: saline) was 151 % of control.
With `O=C(NNc1ccc(F)cc1)C12CC3CC(CC(C3)C1)C2` the T/C [6] was 103 % of control, the T/C [7] was 99 % of control and the T/C (dose: 50.0 mg/kg/injection, schedule: Q01DX009 (ip), vehicle: saline with Tween-80) was 87 % of control.
For `COC1=NC2=NC(OC)=NC3=C(Br)C=C(Br)C(=N1)N23`, the T/C (dose: 60.0 mg/kg/injection, schedule: Q01DX005 (ip), vehicle: Klucel (hydroxypropylcellulose) (HPC)) was 91 % of control, the T/C (dose: 120.0 mg/kg/injection, schedule: Q01DX005 (ip), vehicle: Klucel (hydroxypropylcellulose) (HPC)) was 92 % of control and the T/C (dose: 240.0 mg/kg/injection, schedule: Q01DX005 (ip), vehicle: Klucel (hydroxypropylcellulose) (HPC)) was 87 % of control.
In the case of `CCCCCCCCCCCCCCCC(=O)OCC(CO)OC(=O)CCCCCCCCCCCCCCC` (configuration not stated), the T/C (dose: 50.0 mg/kg/injection, schedule: Q01DX009 (ip), vehicle: Klucel (hydroxypropylcellulose) (HPC)) is reported as 91 % of control, the T/C (dose: 100.0 mg/kg/injection, schedule: Q01DX009 (ip), vehicle: Klucel (hydroxypropylcellulose) (HPC)) is reported as 87 % of control and the T/C (dose: 200.0 mg/kg/injection, schedule: Q01DX009 (ip), vehicle: Klucel (hydroxypropylcellulose) (HPC)) is reported as 89 % of control.
